Patent US6737383B1, “Herbicidal oxadiazolidines” (priority 1999, dated 2004)

Tests used:
bedstraw = test: Test B pre/postemergence bedstraw; assay type: in vivo, Galium aparine
Summary of the method: (§1)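 Herbicidal effect was estimated by eye on a ten-point control scale after plants spent twelve to sixteen days in a greenhouse following soil or foliar treatment. Foliar sprays targeted plants at one to four leaves; all doses were formulated in a non-phytotoxic solvent with surfactant.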

blackgrass = test: Test B pre/postemergence blackgrass; assay type: in vivo, Alopecurus myosuroides
Summary of the method: as §1

surinam grass = test: Test B pre/postemergence surinam grass; assay type: in vivo, Brachiaria decumbens
Summary of the method: as §1

cocklebur = test: Test B pre/postemergence cocklebur; assay type: in vivo, Xanthium strumarium
Summary of the method: as §1

corn = test: Test B pre/postemergence corn; assay type: in vivo, Zea mays
Summary of the method: as §1

crabgrass = test: Test B pre/postemergence crabgrass; assay type: in vivo, Digitaria sanguinalis
Summary of the method: as §1

giant foxtail = test: Test B pre/postemergence giant foxtail; assay type: in vivo, Setaria faberii
Summary of the method: as §1

morningglory = test: Test B pre/postemergence morningglory; assay type: in vivo, Ipomoea hederacea
Summary of the method: as §1

velvetleaf = test: Test B pre/postemergence velvetleaf; assay type: in vivo, Abutilon theophrasti; conditions: for Plant response rating, Velvetleaf: Rate 250 g/ha
Summary of the method: as §1

wheat = test: Test B pre/postemergence wheat; assay type: in vivo, Triticum aestivum; conditions: for Plant response rating, Wheat: Rate 250 g/ha
Summary of the method: as §1

wild oat = test: Test B pre/postemergence wild oat; assay type: in vivo, Avena fatua; conditions: for Plant response rating, Wild oats: Rate 250 g/ha
Summary of the method: as §1

purple nutsedge = test: Test B pre/postemergence purple nutsedge; assay type: in vivo, Cyperus rotundus
Summary of the method: as §1

rice = test: Test B flood test rice; assay type: in vivo, Oryza sativa
Summary of the method: (§2)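 Plants were grown to the 2-leaf stage before treatment with test chemical, then held in a greenhouse for twelve to sixteen days. Injury was visually rated against untreated controls on a 0–10 scale, where 0 is no effect and 10 is complete control.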

smallflower flatsedge = test: Test B flood test smallflower flatsedge; assay type: in vivo, Cyperus difformis
Summary of the method: as §2

duck salad = test: Test B flood test duck salad; assay type: in vivo, Heteranthera limosa
Summary of the method: as §2

bamyardgrass = test: Test B flood test barnyardgrass; assay type: in vivo, Echinochloa crus-galli
Summary of the method: as §2

[1] = Postemergence, Rate 62 g/ha, scale 0 to 10, 0 is no effect, 10 is complete control
[2] = Postemergence, Rate 250 g/ha, scale 0 to 10, 0 no effect, 10 complete control
[3] = Preemergence, Rate 62 g/ha, scale 0 to 10 (0 no effect, 10 complete control)
[4] = Preemergence, Rate 125 g/ha, scale 0 to 10 (0 no effect, 10 complete control)
[5] = Preemergence, Rate 250 g/ha, scale of 0 to 10 where 0 is no effect and 10 is complete control
[6] = Preemergence, Rate 500 g/ha, scale 0 to 10 (0 no effect, 10 complete control)
[7] = Rate 125 g/ha, Postemergence, scale 0 to 10, 0 no effect, 10 complete control
[8] = Postemergence, Rate 125 g/ha, scale of 0 to 10 where 0 is no effect and 10 is complete control
[9] = Rate 62 g/ha, Postemergence, scale of 0 to 10 where 0 is no effect and 10 is complete control
[10] = Rate 500 g/ha, Postemergence, scale 0 to 10, 0 no effect, 10 complete control
[11] = Preemergence, Rate 125 g/ha, 0 is no effect, 10 is complete control
[12] = Preemergence, scale of 0 to 10 where 0 is no effect and 10 is complete control
[13] = Postemergence, scale 0 to 10, 0 is no effect, 10 is complete control
[14] = Postemergence (flood test species), Rate 125 g/ha, scale of 0 to 10 where 0 is no effect and 10 is complete control
[15] = Rate 62 g/ha, Postemergence section, flood test species, scale of 0 to 10 where 0 is no effect and 10 is complete control
[16] = Rate 250 g/ha, Postemergence (flood test), scale 0 to 10, 0 is no effect, 10 is complete control
[17] = Rate 250 g/ha, headed Pre-emergence (flood test species), scale 0 to 10 (0 no effect, 10 complete control)
[18] = Rate 500 g/ha, headed Pre-emergence (flood test species), scale 0 to 10 (0 no effect, 10 complete control)
[19] = Rate 500 g/ha, listed under Postemergence (flood test species), scale 0 to 10, 0 no effect, 10 complete control
[20] = Rate 1000 g/ha, Pre-emergence (as headed), scale 0 to 10
[21] = Rate 2000 g/ha, Pre-emergence (as headed), scale 0 to 10
[22] = flood test, listed under Postemergence, Rate 250 g/ha, scale 0 to 10, 0 no effect, 10 complete control

CCn1c(=O)on(C(=O)N(c2ccc(F)cc2F)C(C)C)c1=O [Compound 116]
5: Cocklebur plant response rating (cocklebur; [6]) | Cocklebur plant response rating (cocklebur; [10]) | Wheat plant response rating (0 to 10 scale) (wheat; [11]) | Nutsedge plant response rating (purple nutsedge; [9])
7: Corn plant response rating (corn; [10]) | Morningglory plant response rating (morningglory; [10]) | Plant response rating, Velvetleaf (velvetleaf; [13]) | Plant response rating, Wheat (wheat; [13]) | Wild oats plant response rating (wild oat; [8]) | Wild oats plant response rating (wild oat; [3]) | Wild oats plant response rating (0 to 10 scale) (wild oat; [11]) | Plant response rating, Wild oats (wild oat; [13]) | Nutsedge plant response rating (purple nutsedge; [8])
1: Ducksalad plant response rating (duck salad; [20])
9: Bedstraw plant response rating (bedstraw; [2]) | Plant response rating, Bedstraw (bedstraw; [5]) | Bedstraw plant response rating (bedstraw; [6]) | Blackgrass plant response rating (blackgrass; [8]) | Blackgrass plant response rating (blackgrass; [2]) | Blackgrass plant response rating (blackgrass; [3]) | Plant response rating, Blackgrass (blackgrass; [4]) | Blackgrass plant response rating (blackgrass; [9]) | Blackgrass plant response rating (blackgrass; [10]) | B. signalgrass plant response rating (surinam grass; [2]) | B. signalgrass plant response rating (surinam grass; [7]) | B. signalgrass plant response rating (surinam grass; Rate 500 g/ha, Postemergence, scale of 0 to 10 where 0 is no effect and 10 is complete control) | Corn plant response rating (corn; [6]) | Crabgrass plant response rating (crabgrass; [8]) | Crabgrass plant response rating (crabgrass; [2]) | Crabgrass plant response rating (crabgrass; [9]) | Crabgrass plant response rating (crabgrass; [10]) | Giant foxtail plant response rating (giant foxtail; [8]) | Giant foxtail plant response rating (giant foxtail; [2]) | Giant foxtail plant response rating (giant foxtail; [9]) | Giant foxtail plant response rating (giant foxtail; [10]) | Velvetleaf plant response rating (0 to 10 scale) (velvetleaf; [11]) | Nutsedge plant response rating (purple nutsedge; [10]) | S. Flatsedge plant response rating (smallflower flatsedge; [21]) | Barnyardgrass plant response rating (bamyardgrass; Rate 2000 g/ha, Pre-emergence (as headed), scale 0 to 10, 0 no effect, 10 complete control)
4: B. signalgrass plant response rating (surinam grass; [3]) | Morningglory plant response rating (morningglory; [8]) | Morningglory plant response rating (morningglory; [2]) | Plant response rating, Morningglory (morningglory; [5]) | Velvetleaf plant response rating (velvetleaf; [8]) | Velvetleaf plant response rating (velvetleaf; [9]) | Rice plant response rating (rice; [21]) | Barnyardgrass plant response rating (bamyardgrass; [19])
10: Plant response rating, Blackgrass (blackgrass; [5]) | Blackgrass plant response rating (blackgrass; [6]) | Plant response rating, B. signalgrass (surinam grass; [5]) | B. signalgrass plant response rating (surinam grass; [6]) | Plant response rating, Crabgrass (crabgrass; [4]) | Plant response rating, Crabgrass (crabgrass; [5]) | Crabgrass plant response rating (crabgrass; [6]) | Giant foxtail plant response rating (giant foxtail; [3]) | Plant response rating, Giant foxtail (giant foxtail; [4]) | Plant response rating, Giant foxtail (giant foxtail; [5]) | Giant foxtail plant response rating (giant foxtail; [6]) | Plant response rating, Velvetleaf (velvetleaf; [12]) | Velvetleaf plant response rating (velvetleaf; [6]) | Plant response rating, Wild oats (wild oat; [12]) | Wild oats plant response rating (wild oat; [6])
3: Cocklebur plant response rating (cocklebur; [2]) | Wheat plant response rating (wheat; [3]) | Wild oats plant response rating (wild oat; [9])
2: Bedstraw plant response rating (bedstraw; [3]) | Corn plant response rating (corn; [2]) | Plant response rating, Corn (corn; [4]) | Morningglory plant response rating (morningglory; [9])
0: Bedstraw plant response rating (bedstraw; [1]) | Cocklebur plant response rating (cocklebur; [8]) | Cocklebur plant response rating (cocklebur; [3]) | Plant response rating, Cocklebur (cocklebur; [4]) | Plant response rating, Cocklebur (cocklebur; [5]) | Cocklebur plant response rating (cocklebur; [9]) | Corn plant response rating (corn; [8]) | Corn plant response rating (corn; [3]) | Corn plant response rating (corn; [9]) | Morningglory plant response rating (morningglory; [3]) | Plant response rating, Morningglory (morningglory; [4]) | Wheat plant response rating (wheat; [9]) | Nutsedge plant response rating (purple nutsedge; [3]) | Plant response rating, Nutsedge (purple nutsedge; [4]) | Plant response rating, Nutsedge (purple nutsedge; [5]) | Nutsedge plant response rating (purple nutsedge; [6]) | Rice plant response rating (rice; [14]) | Rice plant response rating (rice; [15]) | Plant response rating, Rice (rice; [16]) | Rice plant response rating (rice; [17]) | Plant response rating, Rice (rice; [18]) | Rice plant response rating (rice; [19]) | Rice plant response rating (rice; [20]) | S. Flatsedge plant response rating (smallflower flatsedge; [14]) | S. Flatsedge plant response rating (smallflower flatsedge; Pre-emergence, Rate 1000 g/ha, scale 0 to 10 (0 no effect, 10 complete control)) | S. Flatsedge plant response rating (smallflower flatsedge; [15]) | Plant response rating, S. Flatsedge (smallflower flatsedge; [16]) | S. Flatsedge plant response rating (smallflower flatsedge; [17]) | Plant response rating, S. Flatsedge (smallflower flatsedge; [18]) | S. Flatsedge plant response rating (smallflower flatsedge; [19]) | Ducksalad plant response rating (duck salad; [14]) | Ducksalad plant response rating (duck salad; [15]) | Ducksalad plant response rating (duck salad; [17]) | Plant response rating, Ducksalad (duck salad; [18]) | Ducksalad plant response rating (duck salad; [19]) | Ducksalad plant response rating (duck salad; [22]) | Barnyardgrass plant response rating (bamyardgrass; [1]) | Barnyardgrass plant response rating (bamyardgrass; Rate 125 g/ha, Postemergence section (flood test species), scale 0 to 10, 0 no effect, 10 complete control) | Barnyardgrass plant response rating (bamyardgrass; [17]) | Plant response rating, Barnyardgrass (bamyardgrass; [18]) | Barnyardgrass plant response rating (bamyardgrass; [20]) | Barnyardgrass plant response rating (bamyardgrass; [22])
8: Plant response rating, Bedstraw (bedstraw; [4]) | B. signalgrass plant response rating (surinam grass; [1]) | Plant response rating, B. signalgrass (surinam grass; [4]) | Crabgrass plant response rating (crabgrass; [3]) | Morningglory plant response rating (morningglory; [6]) | Velvetleaf plant response rating (velvetleaf; [3]) | Velvetleaf plant response rating (velvetleaf; [10]) | Plant response rating, Wheat (wheat; [12]) | Wheat plant response rating (wheat; [6]) | Wheat plant response rating (wheat; [10]) | Wild oats plant response rating (wild oat; [10]) | Nutsedge plant response rating (purple nutsedge; [2]) | Ducksalad plant response rating (duck salad; [21])
6: Bedstraw plant response rating (bedstraw; [7]) | Plant response rating, Corn (corn; [5]) | Wheat plant response rating (wheat; [8])
